# Measurements from patent publication US20100105652A1, “PURINES AS CYSTEINE PROTEASE INHIBITORS” (Glaxo Group Limited, priority 2007, published 2010).
# Where a name gives a salt, the structure may show the parent alone.
# Legend:
# Falcipain-3 = biological target: T1, Falcipain-3 (Plasmodium falciparum, UniProt Q8IIL0); assay: falcipain-3 enzymatic assay (fluorogenic substrate H-D-VLR-AFC, endpoint); format: biochemical; details: parasitic recombinant enzyme, pH 5.5, quenched after 60 minutes
# T1 sequence (Q8IIL0 243-492): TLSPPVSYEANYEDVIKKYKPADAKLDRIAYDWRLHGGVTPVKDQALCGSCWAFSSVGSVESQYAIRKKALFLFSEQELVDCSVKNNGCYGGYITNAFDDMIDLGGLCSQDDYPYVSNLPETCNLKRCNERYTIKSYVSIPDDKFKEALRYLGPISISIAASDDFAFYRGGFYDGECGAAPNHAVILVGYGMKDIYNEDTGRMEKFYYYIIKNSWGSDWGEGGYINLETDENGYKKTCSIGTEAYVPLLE
# Method: (§1) 1) Determination of Falcipain-2, Falcipain-3, Vivapain-2, and Cathepsin S Proteolytic Catalytic Activity
# (§2) Assays for Falcipain-2, Falcipain-3, and Vivapain-2 are carried out with parasitic recombinant enzymes. Cathepsins S is carried out with human recombinant enzymes. Standard assay conditions for the determination of kinetic constants used a fluorogenic peptide substrate, typically H-D-VLR-AFC (Falcipain-2, Falcipain-3, Vivapain-2) or KQKLR-AMC (Cathepsin S) and are determined in 100 mM sodium acetate, pH 5.5, containing 10 mM DTT and 0.5 mM CHAPS (Falcipain-2, Falcipain-3, Vivapain-2), or 50 mM MES, pH 6.5, containing 0.5 mM CHAPS, 10 mM L-CYS, 5 mM EDTA (Cathepsin S). Stock substrate solutions are prepared at 20 mM in DMSO. The activity assays contained 30 uM substrate (Falcipain-2, Falcipain-3, Vivapain-2), and 30 uM substrate (Cathepsin S). All assays contained 1% DMSO. […] All assays are conducted at ambient temperature as end point assays being quenched after 60 minutes with the exception of Cathepsin S at 90 minutes, with 16.6 uM E-64 in 1% DMSO. Product formation (AFC or AMC) is determined from fluorescence (excitation at 405 nm; emission at 530 nm, AFC, or excitation at 360 nm; emission at 460 nm, AMC) monitored with a LJL Aquest (Molecular Devices) fluorescent plate reader. In the case of kinetic reads (used in mechanism of action studies), the reaction is not quenched but is read in the plate reader every 3 minutes for approximately 90 minutes. In addition, the mechanism of action studies for Falcipain-2 utilize Z-LR-AMC as the substrate. Product formation is determined from the fluorescence of AMC, measured with a LJL Acquest (Molecular Devices) fluorescent plate reader (excitation at 360 nm; emission at 460 nm).
# (§3) Potential inhibitors are evaluated using the quenched read (endpoint) method. Assays are carried out in the presence of variable concentrations of test compound. Reactions are initiated by addition of enzyme and substrate to wells containing inhibitor stamped in 100% DMSO. For endpoint assays, the reaction is quenched with the addition of E64. Dose response data is fit to an IC50 curve with preset fitting tools according to equation 1:
# (§4) y=a+(b−a)/(1+(10^X/10^C)^d) (1)
# (§5) where y is the response at a particular inhibitor concentration x, a is the minimum response value, b is the maximum response value, c is the IC50, and d is the slope of the IC50 curve. Assuming the compound is a competitive inhibitor, the apparent KI can be calculated from IC50, as shown in equation 2: […]
# [1] = system: Plasmodium falciparum parasite; assay: whole cell activity against the Plasmodium falciparum parasite; format: cell-based
# From the text: Equation 7 describes the apparent KI for competitive compounds and was substituted into equations 5 and 6 to generate the relevant binding constants from the fitting routine. In addition, the initial and final velocities were fit to equation 3 to further define the binding mechanism and potency. A complete discussion of this kinetic treatment has been fully described (Morrison et al., Adv. Enzymol. Relat. Areas Mol. Biol., 1988, 61, 201). 2) Determination of Whole Cell Activity Against the Plasmodium falciparum Parasite Compounds can be evaluated for whole cell activity against the Plasmodium falciparum parasite according to the procedure described in Sijwali S, and Rosenthal P. J., (2004) Proceedings of the National Academy of Sciences of the United States of America (PNAS) 101(13), 4384-4389 (see in particular “Measurement of Parasite Growth rates and Inhibitor Sensitivity” on page 4385); IC50 values can be calculated as described in Singh A. and Rosenthal P. J., (2001) Antimicrobial Agents and Chemotherapy 45(3), 949-951 (see in particular page 950, first column); synchronised parasites can be prepared as described in Divo A. A. et al., (1985) Protozool. 32, 59-64.
# Falcipain-2 = biological target: T2, Falcipain-2 (Plasmodium falciparum, UniProt Q8I6U4); assay: falcipain-2 enzymatic assay (fluorogenic substrate H-D-VLR-AFC, endpoint); format: biochemical; details: parasitic recombinant enzyme, pH 5.5, quenched after 60 minutes
# T2 sequence (Q8I6U4 244-484): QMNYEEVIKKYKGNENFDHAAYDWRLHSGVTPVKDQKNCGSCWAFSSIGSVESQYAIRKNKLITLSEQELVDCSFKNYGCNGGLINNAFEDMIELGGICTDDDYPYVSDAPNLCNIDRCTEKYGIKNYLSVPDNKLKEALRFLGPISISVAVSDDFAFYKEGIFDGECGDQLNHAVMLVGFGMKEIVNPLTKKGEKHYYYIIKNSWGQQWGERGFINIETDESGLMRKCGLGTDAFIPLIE
# Method: as §1, §2, §3, §4, §5
Structure (SMILES),IC50 (Falcipain-3) [nM],IC50 [1] [nM],IC50 (Falcipain-2) [nM]
"CN(C)CCn1cnc2c(N(NC(=O)c3ccc(CN4CCN(C)CC4)cc3)C3CCCC3)nc(C#N)nc21 [Example 40, N′-{2-cyano-9-[2-(dimethylamino)ethyl]-9H-purin-6-yl}-N′-cyclopentyl-4-[(4-methyl-1-piperazinyl)methyl]benzohydrazide trifluoroacetate]",250 to 400,15 to 150,2.5 to 15
"CN(C)CCn1cnc2c(N(NC(=O)c3cccc(-c4ccc(CN5CCN(C)CC5)cc4)n3)C3CCCCC3)nc(C#N)nc21 [Example 45, N′-{2-cyano-9-[2-(dimethylamino)ethyl]-9H-purin-6-yl}-N′-cyclohexyl-6-{4-[(4-methyl-1-piperazinyl)methyl]phenyl}-2-pyridinecarbohydrazide trifluoroacetate]",15 to 150,15 to 150,2.5 to 15
"CN(C)CCCn1cnc2c(N(NC(=O)c3cccc(-c4ccc(CN5CCN(C)CC5)cc4)n3)C3CCCCC3)nc(C#N)nc21 [Example 46, N′-{2-cyano-9-[3-(dimethylamino)propyl]-9H-purin-6-yl}-N′-cyclo hexyl-6-{4-[(4-methyl-1-piperazinyl)methyl]phenyl}-2-pyridinecarbohydrazide trifluoroacetate]",15 to 150,15 to 150,2.5 to 15
"CN1CCN(Cc2ccc(C(=O)NN(c3nc(C#N)nc4c3ncn4C)C3CCCC3)cc2)CC1 [Example 47, N′-(2-cyano-9-methyl-9H-purin-6-yl)-N′-cyclopentyl-4-[(4-methyl-1-piperazinyl)methyl]benzohydrazide trifluoroacetate]",250 to 400,150 to 250,2.5 to 15
"CN(C)C1CCN(C(=O)n2cnc3c(N(NC(=O)OC(C)(C)C)C4CCCC4)nc(C#N)nc32)CC1 [Example 48, 1,1-dimethylethyl 2-(2-cyano-9-{[4-(dimethylamino)-1-piperidinyl]carbonyl}-9H-purin-6-yl)-2-cyclopentylhydrazinecarboxylate trifluoroacetate]",15 to 150,150 to 250,1 to 2.5
"CN(C)CCCCNC(=O)n1cnc2c(N(NC(=O)OC(C)(C)C)C3CCCC3)nc(C#N)nc21 [Example 49, 1,1-dimethylethyl 2-[2-cyano-9-({[4-(dimethylamino)butyl]amino}carbonyl)-9H-purin-6-yl]-2-cyclopentylhydrazinecarboxylate trifluoroacetate]",15 to 150,> 1000,2.5 to 15

# The remaining lines, values ahead:
IC50 (Falcipain-3) [nM],IC50 [1] [nM],IC50 (Falcipain-2) [nM],Structure (SMILES)
2.5 to 15,15 to 150,≤ 1,"CN1CCN(Cc2ccc(C(=O)NN(c3nc(C#N)nc4c3ncn4C(=O)N3CCN(C)CC3)C3CCCCC3)cc2)CC1 [Example 38, N′-{2-cyano-9-[(4-methyl-1-piperazinyl)carbonyl]-9H-purin-6-yl}-N′-cyclohexyl-4-[(4-methyl-1-piperazinyl)methyl]benzohydrazide trifluoroacetate]"
15 to 150,15 to 150,2.5 to 15,"CN(C)CCn1cnc2c(N(NC(=O)OC(C)(C)C)C3CCCC3)nc(C#N)nc21 [Example 39, 1,1-dimethylethyl 2-{2-cyano-9-[2-(dimethylamino)ethyl]-9H-purin-6-yl}-2-cyclopentylhydrazinecarboxylate trifluoroacetate]"
15 to 150,15 to 150,1 to 2.5,"CN(C)CCn1cnc2c(N(NC(=O)c3cccc(N4CCN(C)CC4)c3)C3CCCC3)nc(C#N)nc21 [Example 41, N′-{2-cyano-9-[2-(dimethylamino)ethyl]-9H-purin-6-yl}-N′-cyclopentyl-3-(4-methyl-1-piperazinyl)benzohydrazide bis(trifluoroacetate)]"
15 to 150,15 to 150,2.5 to 15,"CN(C)CCn1cnc2c(N(NC(=O)c3cccc(-c4ccc(CN5CCN(C)CC5)cc4)n3)C3CCCC3)nc(C#N)nc21 [Example 42, N′-{2-cyano-9-[2-(dimethylamino)ethyl]-9H-purin-6-yl}-N′-cyclopentyl-6-{4-[(4-methyl-1-piperazinyl)methyl]phenyl}-2-pyridinecarbohydrazide trifluoroacetate]"
15 to 150,250 to 400,2.5 to 15,"CN(CCn1cnc2c(N(NC(=O)OC(C)(C)C)C3CCCC3)nc(C#N)nc21)C(C)(C)C [Example 43, 1,1-dimethylethyl 2-(2-cyano-9-{2-[(1,1-dimethylethyl)(methyl)amino]ethyl}-9H-purin-6-yl)-2-cyclopentylhydrazinecarboxylate trifluoroacetate]"
15 to 150,15 to 150,2.5 to 15,"CN(C)CCn1cnc2c(N(NC(=O)c3ccc(CN4CCN(C)CC4)cc3)C3CCCCC3)nc(C#N)nc21 [Example 44, N′-{2-cyano-9-[2-(dimethylamino)ethyl]-9H-purin-6-yl}-N′-cyclohexyl-4-[(4-methyl-1-piperazinyl)methyl]benzohydrazide trifluoroacetate]"
